Peptide text beside a SMILES is read from it. * marks the point of attachment. Cbz = O=C(OCc1ccccc1)*
Columns and labels:
[1] = target: T1, peptide amidase from Xanthomonas maltophilia (Stenotrophomonas maltophilia, UniProt Q8RJN5); experiment: Influence of solvents on the peptide amidase activity; format: biochemical; conditions: pH 7.5, 90 minutes, 30° C.
T1 construct: wild type, not recombinant
T1 sequence (Q8RJN5 34-540): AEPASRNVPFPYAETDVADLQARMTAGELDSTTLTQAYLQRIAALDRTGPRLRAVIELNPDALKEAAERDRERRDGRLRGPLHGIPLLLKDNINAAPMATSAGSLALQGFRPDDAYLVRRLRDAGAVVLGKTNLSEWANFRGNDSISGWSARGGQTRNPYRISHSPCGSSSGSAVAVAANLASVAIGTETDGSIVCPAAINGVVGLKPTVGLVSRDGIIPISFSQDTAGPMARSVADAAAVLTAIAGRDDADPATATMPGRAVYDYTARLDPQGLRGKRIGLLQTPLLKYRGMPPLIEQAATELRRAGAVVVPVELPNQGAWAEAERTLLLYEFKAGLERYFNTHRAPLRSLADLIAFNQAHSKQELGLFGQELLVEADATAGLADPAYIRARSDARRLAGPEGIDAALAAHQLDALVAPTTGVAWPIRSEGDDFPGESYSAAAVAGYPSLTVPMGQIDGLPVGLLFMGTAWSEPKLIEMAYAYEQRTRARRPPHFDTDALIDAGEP
Method: 200 μl enzyme solution (59 μg BSAeq/ml, purification stage after the gel filtration) were compounded in each instance with 700 μl of an appropriate mixture of 50 mM tris/solvent, pH 7.5 for the examinations of the influence of solvents on the peptide amidase activity. Dimethylformamide (DMF), acetone, ethanol and propan-1-ol, which were present in the reaction batch up to 70% by volumetric amount, were tested as solvents. The reaction was started by adding substrate Z-Gly-Tyr-NH2. The incubation took place for 90 minutes at 30° C. Then, aliquots of 100 μl of the reaction batches were provided with 100 μl glacial acetic acid and the enzyme activity determined as described in 1.4. […] It is apparent that at 20% DMF, 94% residual activity is still present and even at 30%, 59% is still present. In the presence of other solvents such as […] the enzyme distinctly loses activity but is nevertheless not completely inactivated at a content of 10% (residual activity 30%).

[2] = system: peptide amidase from flavedo of oranges; conditions: cited from earlier work
[3] = target: T1, peptide amidase from Xanthomonas maltophilia; experiment: biochemical; format: biochemical
[4] = target: T1, peptide amidase from Xanthomonas maltophilia; experiment: Enzyme kinetics of peptide amidase; format: biochemical; conditions: substrate 0.4 to 20 mM, 50 mM tris/HCl pH 7.5, 2 hours, 30° C.
Method: (§1) The dependency of the reaction rate of peptide amidase from Xanthomonas maltophilia on the substrate concentration (Z-Gly-Tyr-NH2) was determined and the kinetic parameters determined from the data according to Marquardt. To this end, 50 μl enzyme solution a 27 μg BSAeq/ml were compounded with 400 μl 50 mM tris/HCl buffer, pH 7.5. The reaction was started by adding Z-Gly-Tyr-NH2 as substrate. The substrate was present in the reaction batches in a concentration range of 0.4 to 20 mM. The incubation took place for 2 hours at 30° C. The enzyme activity was then determined as described under 1.4.
(§2) The reaction conditions were selected with a view to the pH stability of peptide amidase from Xanthomonas maltophilia.
(§3) In order to stop the reaction 100 μl of the reaction solution was removed, compounded with 100 μl glacial acetic acid and filled with 1.4 ml HPLC mobile solvent. An aliquot of 20 μl was analyzed by HPLC. The conditions for the HPLC analysis of Z-Gly-Tyr-NH2 were as follows: […]

[5] = target: T1, peptide amidase from Xanthomonas maltophilia; experiment: Splitting of racemic mixtures of N-protected amino acid amides; format: biochemical; conditions: racemic substrate 10 mM, 20 U peptide amidase in 50 ml, 50 mM triethylammonium carbonate pH 7.5, 30° C.
Method: The tests for the splitting [separation] of racemic mixtures took place in 50 mM triethylammonium carbonate buffer, pH 7.5. The test batches a 50 ml with 20 U peptide amidase each were incubated at 30° C. Z-D,L-Ala-NH2, Ac-D,L-Met-NH2 and Ac-D,L-neopentylglycine amide (Ac-D,L-Npg-NH2) were available as substrates. The concentration of the substrates in the reaction batch was 10 mM. Specimens were taken at different times, the reaction stopped by heating for 5 minutes at 95° C. and the enantiomeric purity examined with HPLC.

[6] = substrate: NC(=O)[C@H](Cc1ccc(O)cc1)NC(=O)CNC(=O)OCc1ccccc1; experiment: Enzyme kinetics of peptide amidase; format: biochemical, Xanthomonas maltophilia; conditions: other: substrate 0.4 to 20 mM, 50 mM tris/HCl pH 7.5, 2 hours, 30° C.
Method: as §1, §2, §3

CN(C)C=O [DMF, Dimethylformamide]
residual activity of peptidase amidase in presence of solvent ([1]; 20% solvent): 94% | residual activity of peptidase amidase in presence of solvent ([1]; 30% solvent): 59%

O=S(=O)(F)Cc1ccccc1 [Phenylmethane sulfonyl fluoride]
inhibition by inhibitors from serine proteases [2]: Slight inhibition | inhibition of the microbial peptide amidase (serine groups) [3]: Inhibition | residual activity ([3]; potential inhibitor 10 mM in the test, preincubation 1 h 30° C., Z-Gly-Tyr-NH2 10 mM, 2.5 h): 58%

NC(=O)[C@H](Cc1ccc(O)cc1)NC(=O)CNC(=O)OCc1ccccc1 [Z-Gly-Tyr-NH2] (Cbz-Gly-Tyr-NH2)
vmax [4]: 0.53 U/mg BSAeq

C[C@H](NC(=O)OCc1ccccc1)C(=O)O [Z-L-Ala-OH]
enantiomeric purity examined with HPLC (share of the enantiomer in the acid product) [5]: 99.6%

CC(C)O [propan-2-ol]
residual activity of peptidase amidase in presence of solvent ([1]; 10% solvent): 30%

B1: peptide amidase from Xanthomonas maltophilia (Stenotrophomonas maltophilia) (protein)
chain: AEPASRNVPFPYAETDVADLQARMTAGELDSTTLTQAYLQRIAALDRTGPRLRAVIELNPDALKEAAERDRERRDGRLRGPLHGIPLLLKDNINAAPMATSAGSLALQGFRPDDAYLVRRLRDAGAVVLGKTNLSEWANFRGNDSISGWSARGGQTRNPYRISHSPCGSSSGSAVAVAANLASVAIGTETDGSIVCPAAINGVVGLKPTVGLVSRDGIIPISFSQDTAGPMARSVADAAAVLTAIAGRDDADPATATMPGRAVYDYTARLDPQGLRGKRIGLLQTPLLKYRGMPPLIEQAATELRRAGAVVVPVELPNQGAWAEAERTLLLYEFKAGLERYFNTHRAPLRSLADLIAFNQAHSKQELGLFGQELLVEADATAGLADPAYIRARSDARRLAGPEGIDAALAAHQLDALVAPTTGVAWPIRSEGDDFPGESYSAAAVAGYPSLTVPMGQIDGLPVGLLFMGTAWSEPKLIEMAYAYEQRTRARRPPHFDTDALIDAGEP
notes: wild type, not recombinant
Km [6]: 820 µM

— patent publication US6333176A (Degussa Aktiengesellschaft, priority 1994, dated 2001)
